Among the data in patent publication US8349839B2, “Inhibitors of HIV replication” (Boehringer Ingelheim International GmbH, priority 2009, dated 2013) are IC50 and EC50 values, retold here.

Assay [1] deals with HIV reverse transcriptase (Human immunodeficiency virus type 1 group M subtype B, UniProt P04585). Put plainly: HIV Reverse Transcriptase Assay (IC50). In kind it is biochemical. The following applies: assay of Example 67; 1 mM of ATP added to the reaction mixture. Here is the method:
(§1) Diluted solutions of stock solutions of compounds of Formula I in DMSO are prepared in assay buffer in Eppendorf tubes 16 h prior to their use in the biological assay, using a minimal supplementary volume of 75 μL of assay buffer in addition to the volume required in the assay. The samples are vortexed for 10 min at RT and incubated for 16 h at 4° C. The equilibrated solutions are centrifuged at 16 000 g for 5 min in a centrifuge equipped with an internal chiller, which is pre-equilibrated at 4° C., and the supernatant is collected. The portion of supernatant required for the serial dilutions in the biological assay is transferred to the compound dilution plate and a 75 μL portion of the remaining supernatant is transferred to a 1.4 mL tube (Micronic). A 25 μL volume of DMSO is promptly added and the sample is submitted for concentration determination by HPLC, along with the stock solution of the compound in DMSO as a standard for concentration determination analysis.
HIV Reverse Transcriptase Assay (IC50)
The assay used to measure inhibition of HIV reverse transcriptase is as described in WO 2006/034583, pages 52-53, incorporated herein by reference, except that 1 mM of ATP was added to the reaction mixture.

The subject of assay [2] is HIV-1 replication in C8166 LTRluc cells. Briefly: C8166 HIV-1 Luciferase Assay (EC50). In kind it is cell-based. Particulars: Human immunodeficiency virus 1, 72 h; assay of Example 68; C8166 LTRluc cells infected with HIV-1 at moi 0.005, 3 days. The method, then: as §1
C8166 HIV-1 Luciferase Assay (EC50)
The assay used to measure inhibition of HIV replication is as described in WO 2004/050643, pages 73-75, incorporated herein by reference, with the following modifications:
Serial dilutions of HIV-1 inhibitors are prepared in complete media from DMSO stock solutions. Eleven serial dilutions of desired concentration are prepared in a 1 mL deep well titer plate (96 wells). The 12th well contains complete media with no inhibitor and serves as the positive control. All samples contain the same concentration of DMSO (<0.1% DMSO). Inhibitor is added, to triplicate wells, of a 96 well tissue culture treated clear view black microtiter plate (Corning Costar catalogue #3904). The total volume per well is 200 μL of media containing the cells and inhibitor. The last row is reserved for uninfected C8166 LTRluc cells to serve as the background blank control and the first row is media alone.
Count C8166 LTRluc cells and place in a minimal volume of complete RPMI 1640 in a tissue culture flask (ex. 30×10^6 cells in 10 mL media/25 cm^2 flask). Infect cells with HIV-1 at a moi of 0.005. Incubate cells for 1.5 h at 37° C. on a rotating rack in a 5% CO2 incubator. Resuspend cells in complete RPMI to give a final concentration of 25,000-cells/well. Add cells to wells of 96 well microtiter plate containing inhibitors. Add 25,000 uninfected C8166-LTRluc cells/well in 200 μL complete RPMI to last row for background control. Incubate cells at 37° C. in 5% CO2 incubator for 3 days.
50 μL Steady Glo (luciferase substrate T1/2=5 hours Promega catalogue # E2520) is added to each well of the 96 well plate. The relative light units (RLU) of luciferase are determined using a luminescence plate reader. The calculated % inhibition values are used to determine EC50, slope factor (n) and maximum inhibition (Imax).

Regarding `COCCCN1CCN(c2ccc(-c3nc(=O)n(CCCOC)c4c3oc3ncccc34)cn2)CC1` [Compound 5001], the IC50 in assay [1] turned out to be 60 nM. The compound also registered an EC50 in assay [2] of 590 nM.
As to `CN(C)Cc1ccc(-c2ccc3oc4c(-c5ccccc5)nc(=O)n(CC(=O)NC5CC5)c4c3c2)cc1` [Compound 2310], the IC50 in assay [1] amounted to 1000 nM.
Take `CCCCCn1c(=O)nc(-c2ccc(N3CCN(C)CC3)nc2)c2oc3ncc(C#N)cc3c21` [Compound 5024]: the 50% inhibitory concentration (IC50) in assay [1] is 6 nM. In assay [2], this compound came in with an EC50 of 32 nM.
For `O=C(O)Cn1c2ccc(Cl)cc2c2c1c(-c1ccccc1)nc(=O)n2CCN1CCCC1` [Compound 4001], the IC50 in assay [1] was found to be 280 nM. A half-maximal response in assay [2] (EC50) required 5800 nM.
The corresponding values for `CCNCC(=O)Nc1ccc(-c2nc(=O)n(CCOC)c3c2oc2ccccc23)cc1` [Compound 1009] are 73 nM and 675 nM.
Consider `CN1CCc2cc(-c3ccc4oc5c(-c6ccc(F)cc6)nc(=O)n(CCN6CCCC6C(N)=O)c5c4c3)ccc2C1` (centres unmarked) [Compound 2025], for which, in assay [1], the 50% inhibitory concentration (IC50) worked out at 35 nM. Further, in assay [2], the response was half-maximal at 52 nM (EC50).
On to `COCCn1c(=O)nc(-c2ccc(NC(=O)NCCN3CCCC3)cc2)c2oc3ccccc3c21` [Compound 1016], for which, in assay [1], the half-maximal inhibitory concentration (IC50) is 107 nM. The compound also came in with a concentration for a half-maximal effect (EC50) in assay [2] of 6800 nM.
Regarding `CCNCc1nc2cc(-c3nc(=O)n(CCCOC)c4c3oc3ccc(Cl)cc34)ccc2n1C` [Compound 2273], the half-maximal inhibitory concentration (IC50) in assay [1] stood at 8 nM. In addition, the concentration for a half-maximal effect (EC50) in assay [2] worked out at 58 nM.
Regarding `COCCCN1c2c(oc3ccc(-c4ccc(CN(C)C)cc4)cc23)C(c2ccccc2)=NS1(=O)=O` [Compound 3004], in assay [1], the IC50 is greater than 205 nM. In addition, the EC50 in assay [2] amounted to 520 nM.
Turning to `O=c1nc(-c2ccccc2)c2oc3ccc(Cl)cc3c2n1CCN1CCCC1` [Compound 2001], in assay [1], the IC50 was determined as 593 nM. The same compound yielded an EC50 in assay [2] of 3700 nM.
Take `COCCn1c(=O)nc(-c2ccc(NS(C)(=O)=O)cc2)c2oc3ccc(-c4ccc(CN(C)C)cc4)cc3c21` [Compound 2194]: the half-inhibitory concentration (IC50) in assay [1] was determined as 395 nM. Moreover, the EC50 in assay [2] amounted to 1500 nM.
As to `O=c1nc(-c2ccccc2)c2oc3ccccc3c2n1CCN1CCCC1` [Compound 1001], the IC50 in assay [1] turned out to be 2350 nM.
Take `CC(=O)N(C)C1CCN(CCn2c(=O)nc(-c3ccccc3)c3oc4ccc(Br)cc4c32)C1` (centres unmarked) [Compound 2038]: the IC50 in assay [1] stood at 250 nM. In assay [2], this compound registered an EC50 of 2900 nM.
Turning to `COCCn1c(=O)nc(-c2ccc(NC(=O)CN(C)C)cc2)c2oc3ccccc3c21` [Compound 1004], the half-inhibitory concentration (IC50) in assay [1] amounted to 1150 nM. For the same compound, the midpoint of the response in assay [2], the EC50, lay at 3600 nM.
Consider `CCNCC(=O)Nc1ccc(-c2nc(=O)n(CCOC)c3c2oc2ccc(-c4ccc5c(c4)N(C)CCC5)cc23)cc1` [Compound 2039], for which the concentration for half-maximal inhibition (IC50) in assay [1] is 24 nM. Further, the EC50 in assay [2] is 440 nM.
Consider `CN(C)Cc1ccc(-c2ccc3oc4c(c3c2)N(CC2CCCO2)S(=O)(=O)N=C4c2ccccc2)cc1` (centres unmarked) [Compound 3003], for which the concentration for half-maximal inhibition (IC50) in assay [1] is greater than 225 nM. For the same compound, in assay [2], the half-maximal effective concentration (EC50) is 950 nM.
As for `CN1CCN(c2ccc(-c3nc(=O)n(C)c4c3oc3ccc(Br)cc34)cn2)CC1` [Compound 2257], the concentration for half-maximal inhibition (IC50) in assay [1] is 31 nM. In assay [2], the concentration for a half-maximal effect (EC50) was determined as 190 nM.
`COCCn1c(=O)nc(-c2ccc(NC(=O)CN3CCOCC3)cc2)c2oc3ccccc3c21` [Compound 1005]: in assay [1], the IC50 worked out at 215 nM.
With `COCCn1c(=O)nc(-c2ccc(N)cc2)c2oc3ccc(Br)cc3c21` [Compound 2133], the IC50 in assay [1] stood at 760 nM. Moreover, in assay [2], the concentration for a half-maximal effect (EC50) came to 4650 nM.
Regarding `COCCn1c(=O)nc(-c2ccc(N3CCN(C)CC3)nc2)c2oc3ccc(Cl)cc3c21` [Compound 2260], the IC50 in assay [1] was determined as 75 nM. The compound also yielded an EC50 in assay [2] of 890 nM.
Turning to `CCCCCn1c(=O)nc(-c2ccc3c(c2)nc(C)n3C)c2oc3ccc(-c4cnn(C)c4)cc3c21` [Compound 2287], the IC50 in assay [1] turned out to be 5 nM. In addition, it took 18 nM to reach a half-maximal effect in assay [2] (EC50).
For `COCCCn1c(=O)nc(-c2ccc(N3CCN(C)CC3)nc2)c2oc3ncc(-c4cncs4)cc3c21` [Compound 5028], the half-maximal inhibitory concentration (IC50) in assay [1] is 4.1 nM. This compound displayed an EC50 in assay [2] of 21 nM.
The like results for `CCNCC(=O)Nc1ccc(-c2nc(=O)n(CCOC)c3c2oc2ccc(-c4cncs4)cc23)cc1` [Compound 2021] were, in that order, 20 nM and 200 nM.
The like results for `CCNCC(=O)Nc1ccc(-c2nc(=O)n(C)c3c2oc2ccccc23)cc1` [Compound 1051] were, in that order, 520 nM and 980 nM.
Consider `COCCCn1c(=O)nc(-c2ccc(N3CCC(NCC(F)F)CC3)nc2)c2oc3ncc(-c4cnn(C)c4)cc3c21` [Compound 5004], for which, in assay [1], the IC50 turned out to be 14 nM.
With `O=c1nc(-c2ccccc2)c2oc3ccc(Cl)cc3c2n1CCN1CCC(F)(F)C1` [Compound 2009], the concentration for half-maximal inhibition (IC50) in assay [1] came to 323 nM. Also, a half-maximal effect in assay [2] (EC50) was put at 2900 nM.
For the compound `CCNCC(=O)Nc1ccc(-c2nc(=O)n(CCOC)c3c2oc2ccc(-c4cccc5c4CCN(C)C5)cc23)cc1` [Compound 2115], the concentration for half-maximal inhibition (IC50) in assay [1] was found to be 1150 nM.
As to `COCCCn1c(=O)nc(-c2ccc(N3CCN(C(C)C)CC3)nc2)c2oc3cnccc3c21` [Compound 5019], the concentration for half-maximal inhibition (IC50) in assay [1] was 25 nM. The compound also yielded a concentration for a half-maximal effect (EC50) in assay [2] of 280 nM.
Consider `CN1CCN(c2ccc(-c3nc(=O)n(CCN4CCCC4)c4c3oc3ccc(Cl)cc34)cn2)CC1` [Compound 2232], for which the IC50 in assay [1] amounted to 22 nM. The compound also had a half-maximal effective concentration (EC50) in assay [2] of 240 nM.
On to `COCCn1c(=O)nc(-c2ccc(OCCN(C)C)cc2)c2oc3ccccc3c21` [Compound 1036], for which the 50% inhibitory concentration (IC50) in assay [1] is 633 nM. In assay [2], the half-maximal effective concentration (EC50) turned out to be 14000 nM.
In the case of `CN(C)Cc1ccc(-c2ccc3oc4c(-c5ccccc5)nc(=O)n(-c5ccccc5)c4c3c2)cc1` [Compound 2213], in assay [1], the half-maximal inhibitory concentration (IC50) turned out to be 86 nM. The compound also showed an EC50 in assay [2] of 235 nM.
For `CNC1CCN(c2ccc(-c3nc(=O)n(CCOC)c4c3oc3ccc(Cl)cc34)cn2)C1` (centres unmarked) [Compound 2254], the IC50 in assay [1] came out at 40 nM. The compound further had an EC50 in assay [2] of 210 nM.
Consider `COCCn1c(=O)nc(-c2ccc(N(C)CCN(C)C)nc2)c2oc3ccccc3c21` [Compound 1070], for which the concentration for half-maximal inhibition (IC50) in assay [1] stood at 310 nM. The compound also returned an EC50 in assay [2] of 1200 nM.
For `COCCn1c(=O)nc(-c2ccc(N3CCN(C(C)C)CC3)nc2)c2oc3ccccc3c21` [Compound 1073], the IC50 in assay [1] is 107 nM. The compound also came in with an EC50 in assay [2] of 720 nM.
With `COCCn1c(=O)nc(-c2ccc(NC(=O)CN3CCCC3)c(OC)c2)c2oc3ccccc3c21` [Compound 1056], the 50% inhibitory concentration (IC50) in assay [1] is 2500 nM.
For `CC(C)N1CCN(c2ccc(-c3nc(=O)n(CC(=O)N4CC[C@H](F)C4)c4c3oc3ccc(Cl)cc34)cn2)CC1` [Compound 2277], the IC50 in assay [1] was determined as 7 nM. Further, in assay [2], a half-maximal response (EC50) required 92 nM.
Turning to `CN1CCN(CC(=O)Nc2ccc(-c3nc(=O)n(C)c4c3oc3ccccc34)cc2)CC1` [Compound 1002], in assay [1], the IC50 came out at 11000 nM. In assay [2], this compound displayed an EC50 of 15000 nM.
